From patent US5587402A, “Regression of mammalian leukemia cell tumors” (priority 1995, dated 1996) come the findings set out here.

Data set [1] can be described thus: Toxicity of dietary perillyl alcohol in rats. The data set is classed as in vivo, Wistar-Furth female rats. On the procedure:
We used Wistar-Furth female rats for in vivo studies. Wistar-Furth female rats were obtained from Harlan Sprague-Dawley, Inc., (Madison, Wis.). All rats, arriving at 43-48 days of age, were housed at four rats per cage in wire-bottom metal cages and all were maintained with a light/dark cycle of 12 hours. Rates were provided Teklad Lab blox chow and acidified water ad libitum.
In the pair-feeding study, a group of 70 mammals was treated with DMBA. Beginning four weeks post-carcinogen administration, mammals were weighed and palpated weekly. Upon palpation of the first mammary tumor(s) (diameter≥3 mm), mammals were randomly assigned to control or 2.5% (w/w) perillyl alcohol diet and pair-fed.
Perillyl alcohol (>96% pure by GC analysis, Aldrich, Milwaukee, Wis.) and Teklad 4% mouse/rat diet meal were thoroughly mixed and stored at -20° C. Fresh diets were make every 7-10 days. All mammals were provided fresh diet daily to minimize evaporation of the monoterpenes. For pair-feeding, the quantity of diet consumed by the monoterpene-fed mammals was measured every 24 hours and the assigned partner was pair-fed accordingly.

The test system of a further data set is M600B cells. The data set is described as follows: Inhibition of M600B cell growth. The data set is classed as cell-based, human. Particulars: FIG. 4. On the procedure:
NIH3T3 (mouse embryo) cells were obtained from the American Type Culture Collection and were grown in Dulbecco's modified Eagle's medium supplemented with 10% calf serum. M600B immortalized human mammary epithelial cells (Stampfer, M. R., 1985, J. Tissue Culture Methods 9: 107-115) were obtained from Dr. Martha Stampfer and were grown in supplemented HCDB 170 medium (Hammond, et al. (1984) Proc. Natl. Acad. Sci U.S.A. 81: 5435-5439), as described previously (Stampfer, et al. (1985) Proc. Natl. Acad. Sci U.S.A. 82: 2394-2398; Eldridge, et al. (1989) Cancer Res. 49: 4326-4331).
All cells were maintained in 100-mm dishes at 37° C. in a humidified 5% CO2 atmosphere. Viable cells were distinguished from nonviable cells by counting azure II/methylene blue-stained colonies 10 days after the cells were plated at a density of 100 cells per dish. Trypan blue exclusion was measured by incubating cells for 1 minute with one drop of trypan blue per 10 ml of cells. Viable (colorless) and nonviable (blue) cells were then counted on a hemocytometer.
Additionally, growth of HT29 (human colon adenocarcinoma) cells was inhibited by 80% by 1 mM perillyl alcohol.

The test system of data set [2] is isoprenylation of 21-26 kDa proteins in M600B cells. The data set is described as follows: Protein isoprenylation in M600B human mammary epithelial cells. It counts as cell-based.
Data set [3] deals with isoprenylation of 21-26 kDa proteins in HT29 cells. The data set is described as follows: Protein isoprenylation in HT29 cells. Particulars: Homo sapiens, HT-29; 1 mM; read-out: decrease of isoprenylation of 21-26 kDa proteins. The data set is classed as cell-based. Here is the method:
"Isoprenylation" is the addition of a multiple of the 5 carbon isoprene unit to a protein. Our experiments in isoprenylation are reported at Crowell, et al. 1991, J. Biol. Chem. 266: 17679-17685. To test whether a specific monoterpene affects isoprenylation of proteins in cells, cell extracts were incubated with a radioactive isoprene precursor and 0-5 mM of the test monoterpene and then subjected to SDS-PAGE. Because they carried a radioactive label, isoprenylated proteins were visualized by fluorography. As a control, cells were incubated without the monoterpene.
Cells were harvested after trypsin treatment, washed twice with phosphate-buffered saline, suspended in electrophoresis sample buffer (Laemmli, U.K., 1970, Nature 227: 680-685), and either analyzed immediately or stored at -20° C. Whole cell extracts were analyzed by SDS-PAGE on 16-cm×18-cm×0.75-mm gels by the method of Laemmli (supra). The acrylamide concentrations were 5% for the stacking gel and 12% for the separating gel. […] Some fluorograms were analyzed further by densitometry. Where indicated, gels were sliced, dissolved at 50° C. for 3 hours in 0.5 ml of water +0.5 ml of Solvable (Amersham), and then analyzed by scintillation spectrometry in 10 ml of Atomlight (Amersham) mixture. Protein content was measured by the method of Lowry, et al. (1951, J. Biol. Chem. 193: 265-275). […]

Data set [4] deals with nontransformed FDC-P1 cells. Kind of data set: Proliferation of nontransformed FDC-P1 myeloid cells. It counts as cell-based, murine. Particulars: Mus musculus, FDC-P1, read-out: inhibition of cell growth. On the procedure:
(The p210 bcr/abl oncogene is carried on a helper-free retrovirus referred to as "p210.") FDC-P1 myeloid cells are an immature cell line from myeloid lineage derived from mouse bone marrow (Dexter, TM, J. Exp. Med. 152: 1036-1047, 1980).

Data set [5] concerns isoprenylation of 21-26 kDa proteins in NIH3T3 (mouse embryo) cells. The data set is described as follows: Protein isoprenylation in NIH3T3 cells (21-26 kDa bands, SDS-PAGE fluorography). The data set is classed as cell-based. The arrangement: Relative activity (inhibition of isoprenylation of 21-26 kDa proteins): key to the marks not given beside the values. Conditions: Experiment 2; 1 mM. Here is the method:
NIH3T3 (mouse embryo) cells were obtained from the American Type Culture Collection and were grown in Dulbecco's modified Eagle's medium supplemented with 10% calf serum. […] Because they carried a radioactive label, isoprenylated proteins were visualized by fluorography. As a control, cells were incubated without the monoterpene. […] Whole cell extracts were analyzed by SDS-PAGE on 16-cm×18-cm×0.75-mm gels by the method of Laemmli (supra). […] Gels were stained with Coomassie Brilliant Blue, equilibrated for 20 minutes in Amplify (Amersham Corp.) fluorographic reagent, dried under vacuum at 65° C., and exposed to […] Some fluorograms were analyzed further by densitometry. […] Protein content was measured by the method of Lowry, et al. […] FIG. 1 depicts the structures of these monoterpenes.

For data set [6], the system named is bcr/abl-induced leukemia in mice. The data set is described as follows: bcr/abl-induced leukemia in mice fed perillyl alcohol diet. The data set is classed as in vivo, mouse. Particulars: diet containing 2% perillyl alcohol. The text has this:
Experiments were done in which the non-malignant mouse bone marrow cell line, FDC-P1, was transformed with a retrovirus engineered to express the p210 bcr/abl oncogene. As described above, the bcr/abl oncogene plays a major role in the development of human Philadelphia chromosome (Ph) positive leukemias. Therefore, this mouse system represents a model of Ph^+ human leukemia. Injection of syngeneic animals with the bcr/abl transformed FDC-P1 cells induces lethal hematopoietic malignancy in which all animals had died within 30 days post-injection (absent perillyl alcohol).
Animals were fed either a control diet or a diet containing 2% perillyl alcohol and were challenged with either 3×10^5 or 3×10^6 bcr/abl-transformed cells. All animals on the control diet died by day 26.

Entries after “also recorded” stand apart in the source; their conditions may differ. Some results are limits rather than exact numbers.

Consider `C=C(C)[C@@H]1CC=C(CO)CC1` [perillyl alcohol], for which the “maximum dose tolerated (diet)” value in data set [1] (diet, data not shown) is 2.5%. Further, the body weight result in data set [1] (perillyl alcohol-fed versus control, FIG. 8) is “initial weight loss followed by weight gain and a plateau; also recorded: did not achieve weights similar to controls”. In addition, the “inhibition of cell growth” value in the data set with M600B cells is reported as “significantly inhibited cell growth in a dose-dependent manner”. Further, the “isoprenylation of 21-26 kDa proteins” value in data set [2] (3 mM, FIG. 2) is given as “inhibited significantly”. Also, in data set [2] (all cell types examined), the inhibition of isoprenylation result is on record as “inhibition of isoprenylation”. For the same compound, the inhibition at 1000 µM in data set [3] turned out to be 40%. In data set [4], the inhibition at 400 µM is below 15%. The “Relative activity (inhibition of isoprenylation of 21-26 kDa proteins)” value in data set [5] was “+++++”. Also, the “animals surviving longer than control animals” value in data set [6] (3×10^5 or 3×10^6 cells, controls all died by day 26) was “about 20%”. For the same compound, the diet acceptance entry in data set [6] (most mice) is “most mice resisted the perillyl alcohol diet”.
